Consider 21 molecules from patent publication US11905253B2, “Compounds and pharmaceutical compositions for reducing CD95-mediated cell motility” (INSTITUT NATIONAL DE LA SANTE ET DE LA RECHERCHE MEDICALE …, priority 2018, dated 2024).

The target of experiment [1] is T1, CD95/FADD interaction (DD-FADD/DD-CD95) (Homo sapiens, UniProt P25445+Q13158).
T1 construct: DD corresponds to amino acids 210 to 303 of CD95; expressed in transfected cells; host or cells: HEK293T
T1 sequence (P25445 226-319 limits assumed): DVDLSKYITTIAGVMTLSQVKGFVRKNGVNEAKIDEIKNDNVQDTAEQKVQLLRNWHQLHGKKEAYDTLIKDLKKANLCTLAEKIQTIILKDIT
T1 sequence (Q13158 97-181 limits assumed): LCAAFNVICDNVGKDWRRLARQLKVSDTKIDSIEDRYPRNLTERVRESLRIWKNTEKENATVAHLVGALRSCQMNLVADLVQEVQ
In words: Renilla luciferase protein-fragment complementation assay (PCA), DD-FADD-F1 / DD-CD95-F2. Format: cell-based. As to conditions: luminescence. The method, then: (§1) A. SH3—PLCγ1-F1 or DD-FADD-F1 (inset) was co-transfected into HEK293T cells along with whole CID-CD95-F2 or DD-CD95-F2 (inset). After 24 h, cells were exposed for 4 h to different compounds according to the invention at different concentrations and luminescence was assessed. The tested compounds were the compounds number 2, 3, 4, 5, 6, 7, 10, 11, 13 and 14.
(§2) F1 corresponds to the N-terminal domain of Renilla luciferase enzyme split into two fragments (F1 and F2, F2 being the C-terminal domain—see Stefan, E. et al. Proc Natl Acad Sci USA 104, 16916-21 (2007)). These F1 and F2 domains were co-expressed in HEK cells, whereupon the interaction between CD95-CID and PLCγ1, or CD95-DD and DD-FADD, allowed protein refolding and subsequent recovery of Renilla luciferase activity.
(§3) CID corresponds to amino acids 175 to 210 of CD95; DD corresponds to amino acids 210 to 303 of CD95.
(§4) Renilla luciferase-based protein-fragment complementation assay (PCA): HEK293T cells were electroporated with 10 μg DNA using a BTM-830 electroporation generator (BTX Instrument Division, Harvard Apparatus). Transfected cells were cultured for 24 h prior to PCA analyses as previously described (Poissonnier, A. et al., Immunity. 2016, 45, 209-223). Briefly, transfected cells (10^6) were washed and resuspended in 100 μL PBS and placed in OptiPlate-96 plates (Perkin-Elmer, Waltham, Mass., USA). Coelenterazine-h (5 μM, Sigma-Aldrich) was added to each well and Renilla luciferase activity was monitored for the first 10 seconds using Infinite200Pro (Tecan, Männedorf, Switzerland).

In experiment [2] the target is T2, CD95/PLCγ1 interaction (SH3-PLCg1/CID-CD95) (Homo sapiens, UniProt P19174).
T2 construct: SH3—PLCγ1-F1 or DD-FADD-F1 (inset) was co-transfected into HEK293T cells; expressed in transfected cells; host or cells: HEK293T
T2 sequence (P19174 791-851): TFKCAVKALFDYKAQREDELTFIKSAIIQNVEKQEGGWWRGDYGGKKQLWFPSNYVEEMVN
In words: Renilla luciferase protein-fragment complementation assay (PCA), SH3-PLCγ1-F1 / CID-CD95-F2. Format: cell-based. The note with it: luminescence; for IC50: HEK293T cells, exposed 4 h. The method, then:
as §1, §2, §3, §4

Experiment [3] deals with CD95-mediated Ca2+ response in Th17 cells. In words: CD95-mediated Ca2+ response in Th17 cells (FIG. 5). Format: cell-based, human. As to conditions: 1 μM, 1 h pre-incubation, cl-CD95L 100 ng/mL. The protocol: All cells were purchased from ATCC (Molsheim Cedex, France). The T cell lines H9 and CEM were cultured in RPMI supplemented with 8% heat-inactivated FCS (v/v) and 2 mM L-glutamine at 37° C./5% CO2. HEK293T cells were cultured at 37° C./5% CO2 in DMEM supplemented with 8% heat-inactivated FCS and 2 mM L-glutamine. PBMCs were isolated from buffy-coat by density gradient centrifugation on lymphocyte separation medium (Eurobio, Les Ulis, France). Th17 cells (CD4+CCR6+CXCR3−) were sorted from PBMCs using a Th17 Enrichment kit (StemCell Technologies, Grenoble, France). Human umbilical vein endothelial cells (HUVEC) were grown in Endothelial Growth Medium (EGM) supplemented with 2% FCS and EGM-2 Bullet Kit (Lonza, Levallois-Perret, France).
Th17 cells were pre-incubated for 1 h with TAT-control, minCID, or compound 13 (each at 1 μM), and then stimulated with cl-CD95L (100 ng/mL). [Ca^2+]CYT was assessed in Fluo2 LR-AM (2 μM)-loaded cells.

On to `CC(O)C(N)C(=O)NCCN(C(=O)CCS)C(CCCNC(=N)N)C(=O)NCCN(C(=O)CCc1c[nH]c2ccccc12)C(Cc1c[nH]cn1)C(=O)NCCN(C(=O)CCCCNC(=N)N)C(CCCCN)C(N)=O` (centres unmarked) [Compound 6], for which the concentration for half-maximal inhibition (IC50) stood at 277 µM in experiment [1] (HEK293T cells, exposed 4 h) and 356 µM in experiment [2].
For `CC(O)CC(=O)NC(CS)C(=O)NCCN(C(=O)CCCCNC(=N)N)C(CCCCN)C(=O)NCCN(C(=O)CCc1c[nH]cn1)C(CCCNC(=N)N)C(=O)NCCNC(=O)CCCCCN` (centres unmarked) [Compound 11], the IC50 is 629 µM in experiment [1] (HEK293T cells, exposed 4 h) and 309 µM in experiment [2].
Consider `CC(O)C(N)C(=O)NCCN(C(=O)CCS)C(CCCNC(=N)N)C(=O)NCCN(C(=O)CCCCCN)C(Cc1cnc[nH]1)C(=O)NCCN(C(=O)CCCCNC(=N)N)C(CCCCN)C(N)=O` (centres unmarked) [Compound 13], for which, in experiment [1] (HEK293T cells, exposed 4 h), the “IC50 DD-FADD/DD-CD95” value is reported as “ns”. In experiment [2], the half-maximal inhibitory concentration (IC50) was found to be 77.2 µM.
In the case of `CC(O)C(N)C(=O)NCCN(C(=O)CCS)C(Cc1c[nH]c2ccccc12)C(=O)NCCN(C(=O)CCCCCN)C(Cc1cnc[nH]1)C(=O)NCCN(C(=O)CCCCNC(=N)N)C(CCCCN)C(N)=O` (centres unmarked) [Compound 7], the half-inhibitory concentration (IC50) is 325 µM in experiment [1] (HEK293T cells, exposed 4 h) and 78.6 µM in experiment [2].
Take `CCCCCCCCCCCCCCCCCC(=O)N(CCN)C(CCCNC(=N)N)C(=O)NCCN(C(=O)CCCCCN)C(Cc1cnc[nH]1)C(=O)NCCN(C(=O)CCCCNC(=N)N)C(CCCCN)C(N)=O` (centres unmarked) [Compound 1]: the 50% inhibitory concentration (IC50) in experiment [1] (HEK293T cells, exposed 4 h) stood at 33.2 µM; in experiment [2], 34.7 µM.
Regarding `N=C(N)NCCCCC(=O)N(CCNC(=O)C(Cc1cnc[nH]1)N(CCNC(=O)C(CCCNC(=N)N)N(CCN)C(=O)CCS)C(=O)CCCCCN)C(CCCCN)C(N)=O` (centres unmarked) [Compound 14], the concentration for half-maximal inhibition (IC50) in experiment [1] (HEK293T cells, exposed 4 h) stood at 3800 µM; in experiment [2], 75.2 µM.
Regarding `N=C(N)NCCCCC(=O)N(CCNC(=O)C(Cc1cnc[nH]1)N(CCNC(=O)C(CCCNC(=N)N)N(CCN)C(=O)CCS)C(=O)CCCCCC(N)=O)C(CCCCN)C(N)=O` (centres unmarked) [Compound 2], the half-maximal inhibitory concentration (IC50) turned out to be 311 µM in experiment [1] (HEK293T cells, exposed 4 h) and 315 µM in experiment [2].
As for `N=C(N)NCCCC(C(=O)NCCN(C(=O)CCCCCN)C(Cc1cnc[nH]1)C(=O)NCCN(C(=O)CCc1ccc(N)cc1)C(CCCCN)C(N)=O)N(CCN)C(=O)CCS` (centres unmarked) [Compound 27], the IC50 in experiment [2] came to 856 µM.
Consider `N=C(N)NCCCCC(=O)N(CCNC(=O)C(Cc1cnc[nH]1)N(CCNC(=O)C(Cc1c[nH]c2ccccc12)N(CCN)C(=O)CCS)C(=O)CCCCCN)C(CCCCN)C(N)=O` (centres unmarked) [Compound 31], for which the IC50 in experiment [1] (HEK293T cells, exposed 4 h) is 173 µM; in experiment [2], 85.5 µM.
For the molecule `N=C(N)NCCCCC(=O)N(CCNC(=O)C(Cc1cnc[nH]1)N(CCNC(=O)C(CCCNC(=N)N)N(CCN)C(=O)CCO)C(=O)CCCCCN)C(CCCCN)C(N)=O` (centres unmarked) [Compound 16], the IC50 worked out at 3930 µM in experiment [1] (HEK293T cells, exposed 4 h) and 79 µM in experiment [2].
Consider `N=C(N)NCCCC(C(=O)NCCN(C(=O)CCCCCN)C(Cc1cnc[nH]1)C(=O)NCCN(C(=O)CCc1ccc(O)cc1)C(CCCCN)C(N)=O)N(CCN)C(=O)CCS` (centres unmarked) [Compound 26], for which, in experiment [2], the concentration for half-maximal inhibition (IC50) is 655 µM.
Turning to `CC(O)CC(=O)N(CCN)C(CS)C(=O)NCCN(C(=O)CCCCNC(=N)N)C(CCCCN)C(=O)NCCN(C(=O)CCc1c[nH]cn1)C(CCCNC(=N)N)C(=O)NCCNC(=O)CCCCCN` (centres unmarked) [Compound 12], the IC50 in experiment [1] (HEK293T cells, exposed 4 h) is 319 µM; in experiment [2] it was 229 µM.
Consider `N=C(N)NCCCCC(=O)N(CCNC(=O)C(Cc1cnc[nH]1)N(CCNC(=O)C(CCCNC(=N)N)N(CCN)C(=O)CCS)C(=O)CCC1CNc2ccccc21)C(CCCCN)C(N)=O` (centres unmarked) [Compound 4], for which the IC50 in experiment [1] (HEK293T cells, exposed 4 h) worked out at 245 µM; in experiment [2] it was 203 µM.
On to “minCID: minimum domain of CID required for interaction with PLCγ1; amino acids 182-188 (TCRKHRK) (SEQ ID NO: 1) of human CD95; positive control (minCID corresponding to amino acids 182-188 of human CD95; listed as Homo sapiens) [reference compound]”, for which the “effect on the CD95/FADD interaction” value in experiment [1] (HEK cells, 4 h, FIGS. 1A, 1B, 1C (inset)) is reported as “without affecting the CD95/FADD interaction”. Further, the “CD95-mediated Ca2+ response in Th17 cells” value in experiment [3] is given as “inhibited”. For the same molecule, the “disruption of the CD95/PLCγ1 interaction” value in experiment [2] (HEK cells, 4 h, FIGS. 1A, 1B, 1C) is “disrupt the CD95/PLCγ1 interaction”.
Consider `N=C(N)NCCCCC(=O)N(CCNC(=O)C(Cc1cnc[nH]1)N(CCNC(=O)C(CCCNC(=N)N)N(CCN)C(=O)CCS)C(=O)CCc1c[nH]c2ccccc12)C(CCCCN)C(N)=O` (centres unmarked) [Compound 3], for which the concentration for half-maximal inhibition (IC50) in experiment [1] (HEK293T cells, exposed 4 h) is 246 µM; in experiment [2] it was 185 µM.
With `N=C(N)NCCCCC(=O)N(CCNC(=O)C(Cc1cnc[nH]1)N(CCNC(=O)C(Cc1cccnc1)N(CCN)C(=O)CCS)C(=O)CCCCCN)C(CCCCN)C(N)=O` (centres unmarked) [Compound 30], the concentration for half-maximal inhibition (IC50) turned out to be 4250 µM in experiment [1] (HEK293T cells, exposed 4 h) and 907 µM in experiment [2].
Regarding `N=C(N)NCCCCC(=O)N(CCNC(=O)C(Cc1cnc[nH]1)N(CCNC(=O)C(CCCNC(=N)N)N(CCN)C(=O)CCC(N)=O)C(=O)CCCCCN)C(CCCCN)C(N)=O` (centres unmarked) [Compound 17], the IC50 in experiment [1] (HEK293T cells, exposed 4 h) was 720 µM; in experiment [2], 343 µM.
In the case of `N=C(N)NCCCCC(=O)N(CCNC(=O)C(Cc1cnc[nH]1)N(CCNC(=O)C(CCCNC(=N)N)N(CCN)C(=O)CCS)C(=O)CCc1ccc(O)cc1)C(CCCCN)C(N)=O` (centres unmarked) [Compound 5], the IC50 in experiment [1] (HEK293T cells, exposed 4 h) was 213 µM; in experiment [2], 196 µM.
As to `N=C(N)NCCCC(C(=O)NCCN(C(=O)CCCCCN)C(Cc1cnc[nH]1)C(=O)NCCN(C(=O)CCc1c[nH]c2ccccc12)C(CCCCN)C(N)=O)N(CCN)C(=O)CCS` (centres unmarked) [Compound 28], the IC50 in experiment [1] (HEK293T cells, exposed 4 h) came out at 2650 µM; in experiment [2] it was 343 µM.
For `N=C(N)NCCCCC(=O)N(CCNC(=O)C(N)CS)C(CCCCN)C(=O)NCCN(C(=O)CCc1c[nH]cn1)C(CCCNC(=N)N)C(=O)NCCNC(=O)CCCCCN` (centres unmarked) [Compound 10], the IC50 in experiment [1] (HEK293T cells, exposed 4 h) is 448 µM; in experiment [2], 400 µM.
For `CCC(=O)N(CCN)C(CCCNC(=N)N)C(=O)NCCN(C(=O)CCCCCN)C(Cc1cnc[nH]1)C(=O)NCCN(C(=O)CCCCNC(=N)N)C(CCCCN)C(N)=O` (centres unmarked) [Compound 15], the IC50 was 164 µM in experiment [1] (HEK293T cells, exposed 4 h) and 60.9 µM in experiment [2].
